Measured values taken from the NIST ThermoML archive (doi:10.1016/j.jct.2017.02.023).

Columns and labels:
[1] = refractive index (Na D-line) (dimensionless); xn = mol fraction of the nth substance listed; conditions: 81.5 kPa, Liquid, Standard Abbe refractometry
[2] = xn = mol fraction of the nth substance listed; conditions: 81.5 kPa, Liquid, Vibrating tube method

CNC1CCCCC1 [N-methylcyclohexylamine] + CCCC(C)O
Conditions | mass density, 298.15 K [kg/m3] | mass density, 308.15 K [kg/m3] | mass density, 318.15 K [kg/m3] | mass density, 328.15 K [kg/m3] | refractive index, 298.15 K | refractive index, 308.15 K | refractive index, 318.15 K | refractive index, 328.15 K
[1], x2 = 0 | – | – | – | – | 1.45306 | 1.44812 | 1.4431 | 1.43809
[1], x2 = 0.1044 | – | – | – | – | 1.45003 | 1.44535 | 1.44061 | 1.4359
[1], x2 = 0.2039 | – | – | – | – | 1.44678 | 1.44217 | 1.43745 | 1.43273
[1], x2 = 0.3 | – | – | – | – | 1.44339 | 1.43884 | 1.43417 | 1.42945
[1], x2 = 0.391 | – | – | – | – | 1.43985 | 1.43539 | 1.43078 | 1.42612
[1], x2 = 0.4776 | – | – | – | – | 1.43608 | 1.43168 | 1.42715 | 1.42254
[1], x2 = 0.5621 | – | – | – | – | 1.43195 | 1.42759 | 1.42311 | 1.41857
[1], x2 = 0.6395 | – | – | – | – | 1.42779 | 1.42345 | 1.419 | 1.41449
[1], x2 = 0.7115 | – | – | – | – | 1.42361 | 1.41932 | 1.4149 | 1.41042
[1], x2 = 0.7926 | – | – | – | – | 1.41862 | 1.41442 | 1.41007 | 1.40562
[1], x2 = 0.8644 | – | – | – | – | 1.41398 | 1.40989 | 1.40561 | 1.40119
[1], x2 = 0.9338 | – | – | – | – | 1.40928 | 1.40524 | 1.40097 | 1.39653
[2], x2 = 0 | 865.2 | 856.57 | 847.67 | 838.68 | – | – | – | –
[2], x2 = 0.1044 | 861.35 | 852.83 | 844.04 | 835.12 | – | – | – | –
[2], x2 = 0.2039 | 857.57 | 849.03 | 840.23 | 831.28 | – | – | – | –
[2], x2 = 0.3 | 853.62 | 845.09 | 836.29 | 827.28 | – | – | – | –
[2], x2 = 0.391 | 849.43 | 840.92 | 832.15 | 823.1 | – | – | – | –
[2], x2 = 0.4776 | 844.86 | 836.35 | 827.59 | 818.52 | – | – | – | –
[2], x2 = 0.5621 | 839.71 | 831.21 | 822.49 | 813.38 | – | – | – | –
[2], x2 = 0.6395 | 834.44 | 825.96 | 817.29 | 808.15 | – | – | – | –
[2], x2 = 0.7115 | 829.18 | 820.72 | 812.03 | 802.91 | – | – | – | –
[2], x2 = 0.7926 | 822.85 | 814.43 | 805.84 | 796.73 | – | – | – | –
[2], x2 = 0.8644 | 817.04 | 808.68 | 800.16 | 791.09 | – | – | – | –
[2], x2 = 0.9338 | 811.24 | 802.9 | 794.42 | 785.33 | – | – | – | –

CNC1CCCCC1 [N-methylcyclohexylamine] + CC(C)O
Conditions | mass density, 298.15 K [kg/m3] | mass density, 308.15 K [kg/m3] | mass density, 318.15 K [kg/m3] | mass density, 328.15 K [kg/m3] | refractive index, 298.15 K | refractive index, 308.15 K | refractive index, 318.15 K | refractive index, 328.15 K
[1], x2 = 0 | – | – | – | – | 1.45306 | 1.44812 | 1.4431 | 1.43809
[1], x2 = 0.159 | – | – | – | – | 1.4471 | 1.44293 | 1.43862 | 1.43418
[1], x2 = 0.2745 | – | – | – | – | 1.44224 | 1.43814 | 1.43386 | 1.42939
[1], x2 = 0.3856 | – | – | – | – | 1.43655 | 1.43263 | 1.42854 | 1.4242
[1], x2 = 0.4867 | – | – | – | – | 1.43021 | 1.42642 | 1.42248 | 1.41824
[1], x2 = 0.5738 | – | – | – | – | 1.42372 | 1.41996 | 1.41606 | 1.41185
[1], x2 = 0.6539 | – | – | – | – | 1.41688 | 1.41311 | 1.4092 | 1.40495
[1], x2 = 0.7253 | – | – | – | – | 1.41003 | 1.40629 | 1.40239 | 1.39812
[1], x2 = 0.7904 | – | – | – | – | 1.40314 | 1.39948 | 1.39565 | 1.39141
[1], x2 = 0.85 | – | – | – | – | 1.39619 | 1.39265 | 1.38892 | 1.38471
[1], x2 = 0.904 | – | – | – | – | 1.38928 | 1.38579 | 1.38209 | 1.37787
[1], x2 = 0.9541 | – | – | – | – | 1.38224 | 1.37859 | 1.37474 | 1.37035
[2], x2 = 0 | 865.2 | 856.57 | 847.67 | 838.68 | – | – | – | –
[2], x2 = 0.159 | 860.12 | 851.49 | 842.65 | 833.57 | – | – | – | –
[2], x2 = 0.2745 | 855.75 | 847.1 | 838.18 | 828.82 | – | – | – | –
[2], x2 = 0.3856 | 850.26 | 841.55 | 832.63 | 823.19 | – | – | – | –
[2], x2 = 0.4867 | 843.79 | 835.1 | 826.14 | 816.62 | – | – | – | –
[2], x2 = 0.5738 | 836.95 | 828.24 | 819.27 | 809.59 | – | – | – | –
[2], x2 = 0.6539 | 829.55 | 820.8 | 811.84 | 802 | – | – | – | –
[2], x2 = 0.7253 | 822.01 | 813.27 | 804.23 | 794.36 | – | – | – | –
[2], x2 = 0.7904 | 814.28 | 805.54 | 796.65 | 786.58 | – | – | – | –
[2], x2 = 0.85 | 806.34 | 797.64 | 788.79 | 778.81 | – | – | – | –
[2], x2 = 0.904 | 798.29 | 789.69 | 780.82 | 770.72 | – | – | – | –
[2], x2 = 0.9541 | 789.83 | 781.27 | 772.4 | 762.26 | – | – | – | –

CNC1CCCCC1 [N-methylcyclohexylamine] + CCCCCC(C)O
Conditions | mass density, 298.15 K [kg/m3] | mass density, 308.15 K [kg/m3] | mass density, 318.15 K [kg/m3] | mass density, 328.15 K [kg/m3] | refractive index, 298.15 K | refractive index, 308.15 K | refractive index, 318.15 K | refractive index, 328.15 K
[1], x2 = 0 | – | – | – | – | 1.45306 | 1.44812 | 1.4431 | 1.43809
[1], x2 = 0.0812 | – | – | – | – | 1.45091 | 1.44613 | 1.44128 | 1.43645
[1], x2 = 0.1624 | – | – | – | – | 1.44856 | 1.44387 | 1.4391 | 1.43432
[1], x2 = 0.2448 | – | – | – | – | 1.44622 | 1.44158 | 1.43686 | 1.43214
[1], x2 = 0.3273 | – | – | – | – | 1.44391 | 1.43933 | 1.43466 | 1.42997
[1], x2 = 0.4098 | – | – | – | – | 1.44151 | 1.43699 | 1.43236 | 1.42773
[1], x2 = 0.486 | – | – | – | – | 1.43911 | 1.43464 | 1.43007 | 1.4255
[1], x2 = 0.5764 | – | – | – | – | 1.43598 | 1.43158 | 1.42708 | 1.42258
[1], x2 = 0.6517 | – | – | – | – | 1.43316 | 1.42882 | 1.42438 | 1.41996
[1], x2 = 0.7435 | – | – | – | – | 1.42959 | 1.42534 | 1.421 | 1.41664
[1], x2 = 0.8282 | – | – | – | – | 1.42631 | 1.42213 | 1.41786 | 1.41356
[1], x2 = 0.9132 | – | – | – | – | 1.423 | 1.41886 | 1.41462 | 1.41037
[2], x2 = 0 | 865.2 | 856.57 | 847.67 | 838.68 | – | – | – | –
[2], x2 = 0.0812 | 861.21 | 852.71 | 843.93 | 835.06 | – | – | – | –
[2], x2 = 0.1624 | 857.38 | 848.98 | 840.27 | 831.44 | – | – | – | –
[2], x2 = 0.2448 | 853.62 | 845.28 | 836.62 | 827.83 | – | – | – | –
[2], x2 = 0.3273 | 849.83 | 841.57 | 832.96 | 824.22 | – | – | – | –
[2], x2 = 0.4098 | 845.9 | 837.7 | 829.15 | 820.48 | – | – | – | –
[2], x2 = 0.486 | 842.05 | 833.91 | 825.44 | 816.83 | – | – | – | –
[2], x2 = 0.5764 | 837.18 | 829.14 | 820.75 | 812.23 | – | – | – | –
[2], x2 = 0.6517 | 832.93 | 824.98 | 816.67 | 808.22 | – | – | – | –
[2], x2 = 0.7435 | 827.66 | 819.81 | 811.59 | 803.21 | – | – | – | –
[2], x2 = 0.8282 | 822.84 | 815.09 | 806.94 | 798.61 | – | – | – | –
[2], x2 = 0.9132 | 818.13 | 810.46 | 802.36 | 794.07 | – | – | – | –
